Columns and labels:
[1] = Freezing point osmometer, osmolality of the culture system; assay type: physicochemical; conditions: sodium chloride concentration 1 μg/mL; FIG. 2a
Text: A fully automated freezing point osmometer (FM-8P, Shanghai Yida Instruments Co., Ltd.) was used to detect the effects of different concentrations of sodium chloride on the osmolality of the culture system, and the specific operations were enrolled in the product instructions (FM-8P, Shanghai Yida Instruments Co., Ltd.). The test results are detailed in FIG. 2a. The results illustrate a linear increase with the concentration of sodium chloride and the osmotic pressure of the culture system. However, when the concentration reached 1 μg/mL, the osmolality of the culture system already exceeded the cell culture limit of 320 mOsm/kg.

[2] = tested on: Human pluripotent stem cells; experiment: CyQuant assay of medium components (cell viability in long-term culture); assay type: cell-based; conditions: different concentrations, FIG. 2b-2c
Procedure: (§1) The Cyquant assay was used to perform the quantitative detection of cell viability, thus investigating the effect of LY2157299 on the physiological state of the cells during long-term culture of the cells; Among them, the LSB method was used as the control group. 96-well light-tight cell culture plates were coated; after the coating was complete, cells were seeded separately at 5×10^4 cell number per well and three sets of parallel replicates were set (the average of three sets was calculated as data) to repeat the procedure of example 2.1. Wherein, the culture procedures described previously were incubated at 37° C. with 5% CO2. Samples were taken on days 1, 5, 10, 15 and 20 for cell viability assay using CyQuant Kit (Invitrogen, cat. No: X12223). The aforementioned assay was operated according to the instructions with a Spectramax i3 Multi-Mode Microplate Reader (VWR, model number: ID3-STD) for data reading.

[3] = tested on: Human pluripotent stem cells; experiment: Chemical induction of neural stem cells from pluripotent stem cells (neural rosette formation, cell morphology); assay type: cell-based
Text: Human pluripotent stem cells include embryonic pluripotent stem cells, such as the H9 cell line and human induced pluripotent stem cells. Wherein, the human induced pluripotent stem cells used in the present invention are obtained from the reprogramming of CD34^+ cells, which refers to “reprogramming culture medium and reprogramming induced pluripotent stem cell culture method” (the method in the patent ZL201910050800.7).
Human pluripotent stem cells are used to coat T25 cell culture flasks with Matrigel ([…] Technologies), and then placed in a 37° C. incubator for more than one hour after plating. Follow 1×10^6 Cells were seeded in T25 flasks for expansion and passage.
For neural induction, use 50 μg/mL poly-lysine (SIGMA, Cat. No.: P6407) to coat a 6-well culture plate, and incubate at 37° C. for more than 3 hours after plating; then use 5 μg/mL Laminin (SIGMA ALDRICH, Cat. No.: 12020) for further coat, and then place in a 37° C. incubator to incubate for more than 3 hours. When pluripotent stem cells reached 70% coverage, they were digested with EDTA at 37° C. for 5 min, and DMEM was used to stop cell digestion. Cells are washed and centrifuged at 2×10^5 the proportions of each flask and are re-seeded in T25 plates. Neural induction is performed using the medium of the present invention in combination with the neural inducing compound, and the medium is changed every day until the neural stem cell rosette is formed. […] Therefore, the single-molecule inducing method provided by this method can induce pluripotent stem cells to form neural rosette structures more efficiently and uniformly.
(§2) From the above results, it is known that the differentiation is not complete under the low concentration condition, and many different types of cells can be seen. However, neural stem cells obtained in high concentration condition are easily differentiated and cell stress appears.

[4] = tested on: Human pluripotent stem cells; experiment: Cyquant assay of cell viability during neural induction; assay type: cell-based; conditions: samples on days 1, 5, 10, 15 and 20; control LSB method; FIG. 1c
Procedure: as §1

[5] = tested on: Sox2, Pax6, Nestin, CASP3; experiment: Q-PCR of marker genes during induction from pluripotent stem cells to neural stem cells; assay type: cell-based, human; conditions: different concentrations
Procedure: Transcriptional changes of different marker genes during induction from pluripotent stem cells to neural stem cells were detected by using Q-PCR. The induced pluripotent stem cells used in this example are neural stem cells derived by LY inducing method and LSB inducing method, respectively. Neural stem cells were prepared as described previously using Rneasy Mini or Micro Kit (QIAGEN) for total RNA extraction, in which […] RNA was used to synthesize cDNA with superscript III First-Strand Synthesis System (Invitrogen).
All the above data were analyzed with the delta-Ct method. Each set of trials was tested using three sets of replicates, and variance statistics were performed.
as §2

[6] = tested on: neural stem cells obtained by the LY inducing method; experiment: Directed differentiation of induced neural stem cells into neurons (immunofluorescence); assay type: cell-based, human
Procedure: The neural stem cells obtained by the LY inducing method in Example 2 were subjected to directed differentiation in NouvNeu001 basal medium. For neuronal differentiation, use 50 μg/mL polylysine (SIGMA ALDRICH, Cat. No.: P6407) to coat a 6-well culture plate, and place the plate in a 37° C. incubator and incubate for more than 3 hours until cells are seeded.
The neural stem cells obtained in example 2 were seeded at a density of 1×10^5 the ratio per flask was inoculated in T25 flasks, and 3 μM CHIR99021 (Selleck, Cat. No.: S2924), 10 μM SU5402 (Tocris, Cat. No.: 3300/1), 10 μM DAPT (Selleck, Cat. No.: S2215) were added to NouvNeu001 basal medium. Fresh medium was replaced every 3 days until day 21. The above cultures were incubated at 37° C. with 5% CO2.
The neural stem cells obtained in example 2 were seeded at a density of 1×10^5 the ratio per flask was inoculated in T25 flasks, and 1 μM Purmorphamine (Sellek, Cat. No.: S3042) and 1 ng/mL TGF-β3 (Novoprotein, Cat. No.: CJ44) were added to NouvNeu001 basal medium to culture neural stem cells. Fresh medium was replaced every 3 days until day 30. The above cultures were incubated at 37° C. with 5% CO2.
The neural stem cells obtained in example 2 were seeded at a density of 1×10^5 the ratio per flask was inoculated in T25 flasks, and 0.5 μM retinyl acetate (SIGMA ALDRICH, Cat. No.: R7782) was added to NouvNeu001 basal medium. Fresh medium was replaced every 3 days until day 24. The above cultures were incubated at 37° C. with 5% CO2.
After induction and differentiation, the cells were harvested and identified by immunofluorescence staining: cells were fixed with 4% paraformaldehyde at room temperature for 40 minutes, washed twice with DPBS buffer; then permeabilized with 0.1% Triton X-100 for 5 minutes, and buffered with DPBS The cells were then washed twice with DPBS buffer containing 10% horse serum and 0.1% Triton X-100 at 4° C. overnight; the cells were washed with DPBS buffer and then washed with 2% horse serum and 0.1% Triton X-100. […]

[7] = tested on: MHC associated genes CD4, HLA-A, HLA-C, hla-f, and HLA-DPB1; experiment: Q-PCR detection of MHC genes of induced neural stem cells; assay type: cell-based; conditions: compared with human pluripotent stem cells; FIG. 6
Text: The major histocompatibility complex (MHC) genes of neural stem cells induced by LY2157299 was detected by Q-PCR method, and pluripotent stem cells (iPS) were used as control.

[8] = tested on: HLA-DR; experiment: Flow cytometry detection of HLA-DR antigens of induced neural stem cells; assay type: cell-based, human; conditions: FIG. 7
Procedure: The HLA-DR antigens of neural stem cells induced by LY2157299 were detected by flow cytometry. HLA-DR is an MHC class II molecule whose expression is critical for the antigen-presenting function of cells and plays a key role in adoptive immune responses. The induced neural stem cells obtained in Example 2 were digested with EDTA, washed with DPBS, centrifuged to remove the supernatant, and 10^6 Cells were resuspended in 100 μL of diluted primary antibody (CD45 PerCP, Abeam, Cat. No. ab157309; HLA-DR FITC, CST, Cat. No. 54126), incubated on ice for 1 hour in the dark, centrifuged to remove supernatant, and cells were resuspended in 500 μL of antibody dilution buffer (CST) and analyzed on a flow cytometer. Samples incubated without primary antibody were used as controls. The results are shown in FIG. 7, FIG. 7a is a negative control, FIG. 7b is the HLA-DR detection result of the neural stem cells obtained by LY2157299 induction.

[9] = tested on: human induced pluripotent stem cells; experiment: Brain organoid culture from induced pluripotent stem cells (formation, diameter); assay type: cell-based; conditions: 12.5 μM in basal medium to day 10, culture to day 120
Procedure: Organoid culture was performed with human induced pluripotent stem cells. Organoid inducing medium was formulated as follows: NouvNeu basal medium supplemented with 12.5 μM LY2157299. Induced pluripotent stem cells were digested to single cells by Accutase, seeded in U-bottom-ultra-low attachment 96-well plates at a ratio of 9000 cells/[…] of brain organoid inducing medium per well. 10 μM ROCK inhibitor Y-27632 (Selleck, S1049) was added, and the cells were placed in a 37° C., 5% carbon dioxide cell incubator for 24 hours (Panasonic, model: MCO-18AC). Y-27632-free fresh organoid inducing medium was changed the following day until day 10. Day 10 the organoids were transferred to ultra-low-attachment 6-well plates and the medium was changed to NouvNeu001 basal medium supplemented with 2% B27 cell culture additive. The culture was conducted at 37° C. in a 5% CO2 cell culture incubator on a horizontal rotator at 80 rpm until day 120.
The control experiment was carried out according to the published method (Clair B et. al, Nat Methods. 2019, November; 16 (11): 1169-1175). N2B27 was used as the basic medium for organ like culture. […]
Organoids were photographed by Leica Dmi8. The brain organoids were photographed and their diameters were measured. […]

[Cl-].[Na+] [sodium chloride]
osmolality of the culture system [1]: > 320 mOsm/kg

recombinant insulin: component of the basal medium, screened at different concentrations
effect of concentration on cell proliferation (CyQuant) [2]: positively correlated with the rate of cell proliferation

Cc1cccc(-c2nn3c(c2-c2ccnc4ccc(C(N)=O)cc24)CCC3)n1 [LY2157299, 4-(2-(6-methylpyridin-2-yl)-5,6-dihydro-4h-pyrrolo[1,2-b]pyrazol-3-yl) quinoline-6-carboxamide]
cell population obtained by chemical induction ([3]; 12.5 μM in NouvNeu001 basal medium, FIG. 4d): resulted in a uniform cell population | cell population obtained by chemical induction ([3]; 25 μM in NouvNeu001 basal medium, FIG. 4e): a mixed population of neural cells was obtained | cell stress during chemical induction ([3]; 25 μM, FIG. 4e): cells showed signs of stress with intracellular vacuoles | cell population obtained by chemical induction ([3]; in NouvNeu001 basal medium, FIG. 4c): a mixed population of cells including neural cells was obtained | number of neural cells (cell viability, CyQuant) [4]: induced more number of neural cells compared with LSB method | regulation of Pax6 expression by concentration (Q-PCR) ([5]; FIG. 4f): positively correlated with Pax6 expression | regulation of apoptosis gene CASP3 by concentration (Q-PCR) ([5]; FIG. 4g): positively correlated with apoptosis | nociceptor neuron differentiation of induced neural stem cells, marker expression ([6]; CHIR99021, SU5402, DAPT until day 21, FIG. 5a-5c): express the nociceptor neuron specific marker SCNI11A | dopaminergic neuron differentiation of induced neural stem cells, marker expression ([6]; Purmorphamine, TGF-β3 until day 30, FIG. 5d-5f): can express mature dopaminergic neuron specific marker Pitx3 | photoreceptor neuron differentiation of induced neural stem cells, marker expression ([6]; retinyl acetate until day 24, FIG. 5g-5i): can express the photoreceptor neuron specific marker OPSIN | expression of MHC associated genes in induced neural stem cells (Q-PCR) [7]: expressed at extremely low levels | HLA-DR antigen expression of induced neural stem cells (flow cytometry) [8]: do not express HLA-DR | generation of cerebral organoids [9]: can induce the generation of cerebral organoids
